# No end group written: not given here.
# Assays:
# p62 = assay: western blot detection of p62 (a protein degraded by autophagy); assay type: cell-based; details: 10 micomolar peptide, compared to 10 micomolar Tat-Beclin 1 compound
# Procedure: (§1) To further assess the components of the beclin1 peptide required for autophagy-inducing activity, a series of shorter peptides were developed. Activity was measured by biochemical autophagy assays including western blot detection of p62 (a protein degraded by autophagy) and western blot detection of the conversion of LC3-I into LC3-II (the lipidated autophagosome-associated form of LC3).
# LC3 = assay: western blot detection of the conversion of LC3-I into LC3-II; assay type: cell-based; details: 10 micomolar peptide, compared to 10 micomolar Tat-Beclin 1 compound
# Procedure: as §1
substance,measurement,setting,value
Tat-GG-VFNATFEIWHD (Tat-GGVFNATFEIWHD) [tat protein transduction domain linked through a diglycine linker to Beclin 1 residues 269-279 with H275E and S279D],p62 degradation,p62,increased p62 degradation
same,LC3-II conversion,LC3,increased LC3-II conversion

# From patent US8802633B1, “Autophagy-inducing peptide analogs” (Board of Regents, The University of Texas System, priority 2013, dated 2014)
